Laboratory results published in PubChem BioAssay (NCI).
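A five-concentration, 48-hour dose response in 96-well plates underlies each endpoint, interpolated linearly between surrounding concentrations. GI50: concentration for 50% inhibition of growth. Definition used: TGI = concentration required for complete inhibition of growth.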

Legend:
Assay in all cases: DTP human tumour cell line panel, 48 h
[1] = system: NCI/ADR-RES ovarian
[2] = system: MCF7 breast
[3] = system: SK-MEL-5 melanoma
[4] = system: DU-145 prostate
[5] = system: HCC-2998 colon
[6] = system: KM12 colon
[7] = system: EKVX NSCLC
[8] = system: 786-0 renal
[9] = system: SK-OV-3 ovarian
[10] = system: UO-31 renal

| SMILES | GI50 [1] [µM] | TGI [1] [µM] | GI50 [2] [µM] | TGI [2] [µM] | GI50 [3] [µM] | TGI [3] [µM] | GI50 [4] [µM] | TGI [4] [µM] | GI50 [5] [µM] | TGI [5] [µM] | GI50 [6] [µM] | TGI [6] [µM] | GI50 [7] [µM] | TGI [7] [µM] | GI50 [8] [µM] | TGI [8] [µM] | GI50 [9] [µM] | TGI [9] [µM] | GI50 [10] [µM] | TGI [10] [µM] |
| --- | --- | --- | --- | --- | --- | --- | --- | --- | --- | --- | --- | --- | --- | --- | --- | --- | --- | --- | --- | --- |
| CC[C@@H]1[C@@H](C)O[C@@](O)([C@@H](C)[C@H](O)[C@H](C)[C@H]2OC(=O)/C=C/C=C/[C@H](C)[C@@H]([C@@H](C)[C@@H](O)[C@H](C)[C@@]3(O)C[C@@H](O[C@H]4C[C@@H](O)[C@H](O)C(C)O4)[C@H](CC)[C@@H](C)O3)OC(=O)/C=C/C=C/[C@@H]2C)C[C@H]1O[C@@H]1C[C@@H](O)[C@H](O)C(C)O1 (stereo not given in full) | 1.05 | 7.04 | 0.0843 | 0.287 | 0.0531 | 0.0992 | 0.0732 | 0.169 | 0.097 | 0.262 | 0.125 | 0.413 | 0.11 | 0.468 | 0.125 | 0.464 | 0.072 | 0.189 | 0.134 | 0.583 |
| O=C1CC[C@H](N2C(=O)c3cccc4c(Cc5ccc(CN6CCOCC6)cc5)ccc2c34)C(=O)N1 | 42 | > 100 | 23.7 | > 100 | 7.32 | 26.4 | > 100 | > 100 | > 100 | > 100 | 79 | > 100 | 17.9 | > 100 | > 100 | > 100 | > 100 | > 100 | 48.7 | > 100 |
| C=C(C)[C@@H]1CC[C@]2(COCCC#N)CC[C@]3(C)[C@H](CC[C@@H]4[C@@](C)(CCCNCCC#N)[C@H](C(=C)C)CC[C@]43C)[C@@H]12 | 20.7 | > 50 | 9.9 | 48.5 | 20.2 | > 50 | 21.6 | > 50 | 9.08 | 20.1 | 15.6 | > 50 | 46.9 | > 50 | 10.6 | 30.1 | > 50 | > 50 | 10.7 | > 50 |
| Nc1ccccc1NC(=O)c1ccc(CNc2nccc(-c3cccnc3)n2)cc1 | 0.803 | > 22.9 | 0.716 | > 43.3 | 0.381 | 1.15 | 1.45 | > 100 | 0.785 | 2.59 | 0.886 | 14.1 | 1.36 | > 59.1 | 2.15 | > 47.9 | 1.37 | > 28.7 | 0.978 | > 77.2 |
| Nc1cc(F)ccc1CC(=O)O | – | > 100 | – | > 100 | – | > 100 | – | > 100 | – | > 100 | – | > 100 | – | > 100 | – | > 100 | – | > 100 | – | > 100 |
| N#Cc1c(NC(=O)NCc2ccccc2)sc2c1CCCC2 | 0.424 | > 34.1 | 0.363 | > 100 | 0.439 | 6.93 | 0.801 | > 33.5 | 1.72 | > 100 | 0.425 | > 100 | 2 | > 100 | 0.822 | > 100 | 9.2 | > 100 | 0.74 | > 100 |
| Cc1cc(Nc2ccc(OCc3ccccc3)cc2)nc2cc(O)ccc12 | 5.93 | 19.8 | 3.32 | 14.2 | 1.68 | 3.2 | 11.9 | 25.4 | 2.41 | 5.18 | 3.1 | 13.3 | 12.3 | 27.2 | 4.51 | 17.2 | 13.4 | 26.7 | 2.04 | 6.58 |
| CC1(C)N=C(N)N=C(N)N1c1ccc(CCCCc2ccccc2)c(Cl)c1 | 6.74 | > 100 | 0.0256 | 2.12 | 0.0628 | 1.32 | 0.0577 | 14 | 0.131 | 3.52 | 0.059 | 1.42 | 0.294 | 25.1 | 0.055 | 13.1 | 0.43 | 11.1 | 4.89 | 25.6 |
| C=CCC(N[C@@H](CO)c1ccccc1)c1cn(Cc2ccccc2Cl)c(=O)n(Cc2ccccc2Cl)c1=O (stereo not given in full) | > 100 | > 100 | > 100 | > 100 | > 100 | > 100 | > 100 | > 100 | > 100 | > 100 | > 100 | > 100 | > 100 | > 100 | > 100 | > 100 | > 100 | > 100 | > 100 | > 100 |
| CCC(CC)c1nc(Nc2ccc(C(=O)OC)cc2)c2ccccc2n1 | 24.3 | > 34.7 | 24.2 | > 50 | 7.82 | 16.1 | > 22.7 | > 31.1 | 8.66 | 17.1 | 8.01 | 18 | 15.9 | > 29.4 | 10.9 | 26.5 | 9.54 | 19 | 7.94 | 15.4 |
| Cc1cccc(-c2[nH]ncc2-c2ccc3ncccc3n2)n1 | 13.7 | > 25 | 8.48 | > 25 | 9.63 | > 18.5 | 12.8 | > 25 | > 25 | > 25 | 9.51 | > 25 | > 20.7 | > 25 | 11.1 | > 25 | > 21.9 | > 25 | 6.17 | > 25 |
| Cc1ccc(NC(=O)c2ccc(CN3CCN(C)CC3)cc2)cc1Nc1nccc(-c2cccnc2)n1 | 23.8 | 68.3 | 17.8 | 44.8 | 12.3 | 24.9 | 19.7 | 55.6 | 21.3 | 38.5 | 18.8 | 41.3 | 26.6 | 92.1 | 16.1 | 33.6 | 28.7 | 80.9 | 22.3 | 53.8 |
| Cc1cc(Cl)cc2c(N=Nc3ccc(S(N)(=O)=O)cc3)c(O)[nH]c12 | > 25 | > 25 | > 25 | > 25 | > 25 | > 25 | > 25 | > 25 | > 25 | > 25 | > 25 | > 25 | > 25 | > 25 | > 25 | > 25 | > 25 | > 25 | > 25 | > 25 |
| COc1c(O)c(OC)c2oc(-c3ccc(O)c(O)c3)c(OC)c(=O)c2c1O | – | > 100 | – | 34 | – | 50.8 | – | 98.8 | – | 98 | – | > 100 | – | 94 | – | 50.9 | – | 54.4 | – | 89.8 |
